Reference: publication PMC12225141 (BMC Chemistry, 2025)

Biological target: calf intestinal alkaline phosphatase (cIAP) (Bos taurus, UniProt P19111)
Assay: spectrophotometric p-NPP hydrolysis assay at […] nm, commercial cIAP
Format: biochemical

Chain of calf intestinal alkaline phosphatase (cIAP) (P19111 20-506): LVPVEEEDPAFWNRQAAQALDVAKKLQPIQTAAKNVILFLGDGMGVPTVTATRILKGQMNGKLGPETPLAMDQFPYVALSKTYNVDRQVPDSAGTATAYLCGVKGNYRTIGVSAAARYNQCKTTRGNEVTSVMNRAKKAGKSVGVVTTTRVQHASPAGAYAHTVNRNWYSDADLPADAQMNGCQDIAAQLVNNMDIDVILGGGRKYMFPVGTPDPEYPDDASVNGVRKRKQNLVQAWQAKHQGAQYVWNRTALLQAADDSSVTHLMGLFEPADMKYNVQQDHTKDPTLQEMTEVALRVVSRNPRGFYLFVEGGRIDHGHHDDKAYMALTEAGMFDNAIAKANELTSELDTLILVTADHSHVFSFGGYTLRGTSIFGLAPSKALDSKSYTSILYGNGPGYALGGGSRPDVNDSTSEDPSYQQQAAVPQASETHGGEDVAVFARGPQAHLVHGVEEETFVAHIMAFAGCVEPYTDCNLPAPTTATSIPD

Compound: CCNC(=S)NC(=O)c1cccc2ccccc12 [NA-MT, N-(ethylcarbamothioyl)-1-naphthamide]
- IC50: 9.875 ± 0.05 µM
